The test system of this experiment is HepG2. Kind of experiment: Inhibition of TGF-beta-induced expression of PAI-luciferase reporter in HepG2 cells. It is filed as functional, cell-based. Conditions: Homo sapiens.

Compound `c1ccc(-c2n[nH]cc2-c2ccnc3ccccc23)nc1` showed an IC50 of 60 nM.

A word on the IC50: it is the concentration at which inhibition is half-maximal. A low value points to inhibition by little substance.

The values are drawn from ChEMBL document CHEMBL1136480, “Successful shape-based virtual screening: the discovery of a potent inhibitor of the type I TGFbeta receptor kinase (TbetaRI)” (Bioorg Med Chem Lett, 2003).
